Experiment [1] relates to full length SMN2 minigene mRNA. As to the kind of experiment: SMN2 minigene mRNA splicing RT-qPCR assay in cultured cells. In kind it is cell-based, human. From the text:
The term “EC1.5x concentration for production of full length SMN2 minigene mRNA” (or “EC1.5x minigene”) is defined as that concentration of test compound that is effective in increasing the amount of full length SMN2 minigene mRNA to a level 1.5-fold greater relative to that in vehicle-treated cells.
The reverse transcription-quantitative PCR-based (RT-qPCR) assay is used to quantify the level of the full length SMN2 minigene (referred to herein by the term “FL SMN2mini”) mRNA containing SMN2 exon 7 in a HEK293H cell line stably transfected with said minigene and treated with a test compound. Materials used and respective sources are listed below in Table 1.
The SMN2-A minigene construct was prepared as described in International Patent Application WO2009/151546A1 page 145 paragraph [00400] to page 147 paragraph [00412](incl. FIG. 1 and FIG. 3 therein).
HEK293H cells stably transfected with the SMN2-A minigene construct (10,000 cells/well) are seeded in 200 μL of cell culture medium (DMEM plus 10% FBS, with 200 μg/mL hygromycin) in 96-well flat-bottom plates and the plate is immediately swirled to ensure proper dispersal of cells and the formation of an even monolayer of cells. Cells are allowed to attach for 6 hours. Test compounds are serially diluted 3.16-fold in 100% DMSO to generate a 7-point concentration curve. A solution of test compound (1 μL, 200× in DMSO) is added to each cell-containing well and the plate is incubated for 24 hours in a cell culture incubator (37° C., 5% CO2, 100% relative humidity). 2 replicates are prepared for each test compound concentration. The cells are then lysed in the Cells-To-Ct lysis buffer and the lysate is stored at −80° C.
Full length SMN2-A minigene and GAPDH mRNA are quantified using the primers and probes referenced in WO2014/209841A2 on page 80 in Table 1. Primer SMN Forward A (SEQ ID NO.1) hybridizes to a nucleotide sequence in exon 7 (nucleotide 22 to nucleotide 40), primer SMN Reverse A (SEQ ID NO.2) hybridizes to a nucleotide sequence in the coding sequence of Firefly luciferase, SMN Probe A (SEQ ID NO.3) hybridizes to a nucleotide sequence in exon 7 (nucleotide 50 to nucleotide 54) and exon 8 (nucleotide 1 to nucleotide 21). The combination of these three oligonucleotides detects only SMN1 or SMN2 minigenes (RT-qPCR) and will not detect endogenous SMN1 or SMN2 genes.
The SMN forward and reverse primers are used at final concentrations of 0.4 μM. The SMN probe is used at a final concentration of 0.15 μM. The GAPDH primers are used at final concentrations of 0.2 μM and the probe at 0.15 μM.
The SMN2-minigene GAPDH mix (15 μL total volume) is prepared by combining 7.5 μL of 2×RT-PCR buffer, 0.4 μL of 25×RT-PCR enzyme mix, 0.75 μL of 20×GAPDH primer-probe mix, 4.0075 μL of water, 2 μL of 10-fold diluted cell lysate, 0.06 μL of 100 μM SMN forward primer, 0.06 μL of 100 μM SMN reverse primer, and 0.225 μL of 100 μM SMN probe.
PCR is carried out at the following temperatures for the indicated time: Step 1: 48° C. (15 min); Step 2: 95° C. (10 min); Step 3: 95° C. (15 sec); Step 4: 60° C. (1 min); then repeat Steps 3 and 4 for a total of 40 cycles.
Each reaction mixture contains both SMN2-A minigene and GAPDH primers/probe sets (multiplex design), allowing simultaneous measurement of the levels of two transcripts.
The increase in the abundance of the FL SMN2mini mRNA relative to that in cells treated with vehicle control is determined from real-time PCR data using a modified ΔΔCt method (as described in Livak and Schmittgen, Methods, 2001, 25:402-8). The amplification efficiency E is calculated from the slope of the amplification curve for FL SMN2mini and GAPDH individually. The abundance of FL SMN2mini and GAPDH mRNA are then calculated as (1+E)^−Ct, where Ct is the threshold value for each amplicon. The abundance of FL SMN2mini mRNA is normalized to GAPDH mRNA abundance. […]
(Real-time PCR tracks product formation cycle by cycle.)

The next experiment relates to SMN1 splicing. As to the kind of experiment: Ex vivo whole blood assay, SMN1 splicing. Type of experiment: cell-based, human. The following applies: whole blood cells from healthy volunteers, 4 hours. On the procedure:
(A) SMN2 splicing in SMA Type 1 fibroblasts. (B) SMN protein in SMA Type 1 fibroblasts. (C) SMN protein in SMA Type 1 motor neurons. (D) SMN1 and SMN2 splicing in whole blood derived from HV. Fibroblasts from SMA Type 1 patients were cultured for 24 hours (A) or 48 hours (B); motor neurons from SMA Type 1 patient iPSCs (induced Pluripotent Stem Cells) were cultured for 72 hours (C) and whole blood cells from healthy volunteers (HV) for 4 hours (D) in the presence of the compound of Example 20. SMN splicing was assessed by RT-PCR, and SMN protein levels were assessed by homogenous time-resolved fluorescence (HTRF) in fibroblast lysates, and by immunostaining for SMN in motor neurons. Data represent means standard error (SEM) of 3 evaluations per data point and are expressed as fold change vs. untreated controls. To further assess SMN2 splicing as a potential blood biomarker, an ex vivo assay was developed using whole blood cells from healthy volunteers in which SMN1 and SMN2 splicing was assessed after 4 hours treatment with the compound of Example 20 (at this time point, maximal splicing changes were achieved).

With `Cc1cn2nc(-c3cc(=O)n4cc(N5CCNC6(CC6)C5)ccc4n3)cc(C)c2n1` [Example 20, 7-(4,7-diazaspiro[2.5]octan-7-yl)-2-(2,8-dimethylimidazo[1,2-b]pyridazin-6-yl)pyrido[1,2-a]pyrimidin-4-one], the EC (1.5-fold increase) in experiment [1] (Homo sapiens, HEK293-H, HEK293H cells stably transfected with SMN2-A minigene, 24 hours, 7-point concentration curve, read-out: EC1.5x minigene) was 0.0047 ± 0.0007 µM. Besides, the “maximum induction of SMN2 minigene full length mRNA” value in experiment [1] (cells expressing the SMN2 minigene) came to 20 fold. Moreover, in the experiment on SMN1 splicing, the “effect on SMN1 splicing” value is “largely unaffected”.

The record behind these values is patent US11938136B2, “Compositions for treating spinal muscular atrophy” (Hoffmann-La Roche Inc., priority 2015, dated 2024).
